Counter-ions that a name gives are not always drawn. Like-named read-outs stand apart in the source and are kept apart here.
Key:
Assay type in all cases: biochemical
recombinant PRL-2 = molecular target: T1, recombinant PRL-2 (Homo sapiens, UniProt Q12974); assay: In vitro phosphatase assay (DiFMUP hydrolysis), PRL-2;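 note: PRL-2 activity read as DiFMUP hydrolysis after 20 min at room temperature with drug, enzyme first pre-reduced at 4 °C for 20 min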
T1 construct: 6xHis (N, cleaved yes); made in house; host or cells: E. coli One Shot BL21 Star
T1 sequence (Q12974 1-167): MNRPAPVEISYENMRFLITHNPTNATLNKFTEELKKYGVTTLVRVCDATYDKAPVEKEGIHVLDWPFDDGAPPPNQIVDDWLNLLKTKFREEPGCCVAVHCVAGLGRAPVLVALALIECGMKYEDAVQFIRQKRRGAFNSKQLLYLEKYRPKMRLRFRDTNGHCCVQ

recombinant PRL-1 = molecular target: T2, recombinant PRL-1 (Homo sapiens, UniProt Q93096); assay: In vitro phosphatase assay (DiFMUP hydrolysis), PRL-1; note: test concentration or dose not given here
T2 construct: 6xHis (N, cleaved yes); made in house; host or cells: E. coli One Shot BL21 Star
T2 sequence (Q93096 1-173): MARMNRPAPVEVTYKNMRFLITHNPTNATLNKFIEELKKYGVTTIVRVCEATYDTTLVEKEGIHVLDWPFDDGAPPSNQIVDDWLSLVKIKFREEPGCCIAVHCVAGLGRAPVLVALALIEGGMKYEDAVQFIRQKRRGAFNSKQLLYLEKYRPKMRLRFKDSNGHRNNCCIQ

recombinant PRL-3 = molecular target: T3, recombinant PRL-3 (Homo sapiens, UniProt O75365); assay: In vitro phosphatase assay (DiFMUP hydrolysis), PRL-3; note: test concentration or dose not given here
T3 construct: 6xHis (N, cleaved yes); made in house; host or cells: E. coli One Shot BL21 Star

[1] = FDA-approved drug screen, compared to DMSO

T3 sequence (O75365 whole entry): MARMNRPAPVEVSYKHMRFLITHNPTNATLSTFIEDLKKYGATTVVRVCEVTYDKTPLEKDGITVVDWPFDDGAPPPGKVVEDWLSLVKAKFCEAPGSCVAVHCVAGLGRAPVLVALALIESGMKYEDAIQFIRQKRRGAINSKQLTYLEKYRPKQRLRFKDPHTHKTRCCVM

SMILES | % Phosphatase Activity (compared to DMSO) PRL-2 (recombinant PRL-2; [1]) [%] | % Phosphatase Activity (compared to DMSO) PRL-1 (recombinant PRL-1; [1]) [%] | % Phosphatase Activity (compared to DMSO) PRL-3 (recombinant PRL-3; [1]) [%] | % Phosphatase Activity (compared to DMSO) PRL-2 (recombinant PRL-2) [%] | % Phosphatase Activity (compared to DMSO) PRL-1 (recombinant PRL-1) [%] | % Phosphatase Activity (compared to DMSO) PRL-3 (recombinant PRL-3) [%]
COc1ccc(CC2c3cc(OC)c(OC)cc3CC[N+]2(C)CCC(=O)OCCCCCOC(=O)CC[N+]2(C)CCc3cc(OC)c(OC)cc3C2Cc2ccc(OC)c(OC)c2)cc1OC (stereo not drawn) [Atracurium Besylate] | 101 | 99 | 101 | – | – | –
NC(=O)[C@@H](CCC(F)(F)F)N(Cc1ccc(-c2ncon2)cc1F)S(=O)(=O)c1ccc(Cl)cc1 [Avagacestat (BMS-708163)] | 85 | 89 | 73 | – | – | –
COc1ccc(CN=c2[nH]c(N3CCC[C@H]3CO)ncc2C(=O)NCc2ncccn2)cc1Cl [Avanafil] | 112 | 98 | 97 | – | – | –
COc1ccc(C(=O)CC(=O)c2ccc(C(C)(C)C)cc2)cc1 [Avobenzone] | 68 | 93 | 87 | – | – | –
CNC(=O)c1ccccc1Sc1ccc2c(/C=C/c3ccccn3)n[nH]c2c1 [Axitinib] | 164 | 102 | 96 | – | – | –
Nc1ncn([C@@H]2O[C@H](CO)[C@@H](O)[C@H]2O)c(=O)n1 [Azacitidine] | 93 | 78 | 89 | – | – | –
OC(c1ccccc1)(c1ccccc1)C1CCNCC1 [Azacyclonol] | 127 | 109 | 96 | – | – | –
O=C(CCCN1CCN(c2ccccn2)CC1)c1ccc(F)cc1 [Azaperone] | 96 | 96 | 88 | – | – | –
CN1CCC(=C2c3ccccc3CCc3cccnc32)CC1 [Azatadine dimaleate] | 108 | 103 | 84 | – | – | –
Cn1cnc([N+](=O)[O-])c1Sc1ncnc2nc[nH]c12 [Azathioprine] | – | – | – | 107 | 96 | 74
O=C(O)CCCCCCCC(=O)O [Azelaic acid] | 98 | 94 | 95 | – | – | –
CN1CCCC(n2nc(Cc3ccc(Cl)cc3)c3ccccc3c2=O)CC1 (stereo not drawn) [Azelastine HCl] | 113 | 121 | 87 | – | – | –
CC1=C(C(=O)OC(C)C)C(c2cccc([N+](=O)[O-])c2)C(C(=O)OC2CN(C(c3ccccc3)c3ccccc3)C2)=C(N)N1 (stereo not drawn) [Azelnidipine] | 99 | 93 | 95 | – | – | –
CCOc1nc2cccc(C(=O)OCc3oc(=O)oc3C)c2n1Cc1ccc(-c2ccccc2-c2noc(=O)[nH]2)cc1 [Azilsartan Medoxomil] | 96 | 91 | 90 | – | – | –
CCOc1nc2cccc(C(=O)O)c2n1Cc1ccc(-c2ccccc2-c2nc(=O)o[nH]2)cc1 [Azilsartan] | 130 | 111 | 101 | – | – | –
CC[C@H]1OC(=O)[C@H](C)[C@@H](O[C@H]2C[C@@](C)(OC)[C@@H](O)[C@H](C)O2)[C@H](C)[C@@H](O[C@@H]2O[C@H](C)C[C@H](N(C)C)[C@H]2O)[C@](C)(O)C[C@@H](C)CN(C)[C@H](C)[C@@H](O)[C@]1(C)O [Azithromycin Dihydrate] | 99 | 98 | 73 | – | – | –
CC[C@H]1OC(=O)[C@H](C)[C@@H](O[C@H]2C[C@@](C)(OC)[C@@H](O)[C@H](C)O2)[C@H](C)[C@@H](O[C@@H]2O[C@H](C)C[C@H](N(C)C)[C@H]2O)[C@](C)(O)C[C@@H](C)CN(C)[C@H](C)[C@@H](O)[C@]1(C)O [Azithromycin] | 94 | 94 | 101 | – | – | –
CC1(C)S[C@@H]2[C@H](NC(=O)[C@H](NC(=O)N3CCNC3=O)c3ccccc3)C(=O)N2[C@H]1C(=O)O [Azlocillin sodium salt] | 112 | 100 | 85 | – | – | –
C[C@H]1[C@H](NC(=O)/C(=N\OC(C)(C)C(=O)O)c2csc(N)n2)C(=O)N1S(=O)(=O)O [Aztreonam] | 88 | 97 | 76 | – | – | –
CCc1cc(/C(C)=N/OCc2ccc(C3CCCCC3)c(C(F)(F)F)c2)ccc1CN1CC(C(=O)O)C1 [BAF312 (Siponimod)] | 87 | 99 | 101 | – | – | –
Cc1ccc(-n2nc(C(C)(C)C)cc2NC(=O)Nc2ccc(OCCN3CCOCC3)c3ccccc23)cc1 [BIRB 796 (Doramapimod)] | 106 | 108 | 98 | – | – | –
Cc1nc(NC(=O)N2CCC[C@H]2C(N)=O)sc1-c1ccnc(C(C)(C)C(F)(F)F)c1 [BYL719] | 96 | 89 | 90 | – | – | –
Cc1ccc(NC(=O)c2ccc(CN3CC[C@H](N(C)C)C3)c(C(F)(F)F)c2)cc1Nc1nccc(-c2cncnc2)n1 [Bafetinib (INNO-406)] | 105 | 97 | 76 | – | – | –
CNC1CCCN(c2c(F)cc3c(=O)c(C(=O)O)cn(C4CC4)c3c2OC)C1 (stereo not drawn) [Balofloxacin] | 411 | 282 | 123 | – | – | –

— paper PMC8119466, “A screen of FDA-approved drugs identifies inhibitors of protein tyrosine phosphatase 4A3 (PTP4A3 or PRL-3)” (Scientific Reports, 2021)
